Data reported in PMC10712727, “Safety, Tolerability, and Pharmacokinetics of Senaparib, a Novel PARP1/2 Inhibitor, in Chinese Patients With Advanced Solid Tumors: A Phase I Trial” (The Oncologist, 2023).

Tests used:
[1] = Plasma pharmacokinetics in continuous dosing period, cycle 1 day 15 steady state (HPLC-MS/MS); assay type: in vivo, human; conditions: for Rac, accumulation ratio (mean±SD) / Vss/F (mean±SD): cycle 1 day 15
Experimental: Dose escalation was conducted using a modified Fibonacci 3 + 3 method (Supplementary Fig. […] At a given dose level, each patient received a single dose of senaparib followed by a 7-day washout period. They then entered a continuous dosing period to confirm the safety and PK profile, in which they received senaparib QD from day 1 to day 21 of each 3-week cycle. Progression to the next higher dose required approval from the Data Safety Monitoring Committee (DSMC) upon review of the safety and PK data of the previous dose. A 50-mg twice-daily (BID) dosing group was added (planned enrollment, n = 6 patients) based on a DSMC review of the safety, PK, and efficacy analysis of the completed QD dose groups in the phase I clinical trial of senaparib dose escalation in Australia (NCT03507543), which commenced prior to the start of this trial. Safety was assessed by recording the incidence of dose-limiting toxicities (DLTs), and the incidence, nature, severity (graded per National Cancer Institute Common Terminology Criteria for Adverse Events version 4.03 [NCI CTCAE v4.03][18]), and relatedness of treatment-emergent adverse events (TEAEs). DLTs were predefined toxicities (Supplementary Table S2) recorded over the 7 days following the single-dose administration of senaparib and during the first treatment cycle (day 1-day 21) for each dose group in the dose-escalation period only. […] Senaparib PK parameters were derived from blood samples collected from patients after the single administration, and at regular intervals during the first cycle of the dose-escalation and dose-expansion periods. Plasma concentrations of senaparib were determined using high-performance liquid chromatography-tandem mass spectrometry. […] There was no formal sample size calculation based on statistical hypothesis testing for this study; the planned enrolment was approximately 30-60 patients across the dose-escalation and dose-expansion cohorts. The actual number in the dose-escalation cohort was adjusted based on the number of dose cohorts required for the modified Fibonacci dose-escalation design and the determined MTD. Definitions for all analysis populations (safety, DLT, PK, and efficacy [intent-to-treat, ITT]) are provided in Supplementary Table S2. No statistical tests were performed; patient demographic and baseline characteristics, safety/tolerability, PK parameters, and efficacy were evaluated descriptively. ORR and DCR and their 95% CIs were calculated for each group using the exact probability method. Kaplan-Meier statistics were used to estimate DOR and PFS, and their 95% CIs for each dose group separately. Dose linearity was explored based on the single-dose data of area under the time-concentration curve (AUC) and maximum plasma concentration (Cmax) using the power model (Y = α × dose β) for the dose range 2-80 mg on a log-transformed scale. The following criterion was used to determine whether dose proportionality was met: if the (2-sided) 90% CI for β was wholly contained within the interval (1 + log(0.5)/log(r), 1 + log(2)/log(r)), then dose proportionality was supported. Here, r was defined as the ratio of the highest to lowest dose. All data analyses were carried out using SAS EG7.1 or higher or (for PK parameters) WinNonlin 7.0 or higher.

[2] = as above; assay type: in vivo, human; conditions: dose range of 2-120 mg

O=C(c1cc(Cn2c(=O)[nH]c(=O)c3c(F)cccc32)ccc1F)N1CCN(c2ncccn2)CC1 [Senaparib]
Rac, accumulation ratio (mean±SD) ([1]; 2 mg QD (n/N = 1/1)): 1.5
Vss/F (mean±SD) ([1]; 2 mg QD (n/N = 1/1)): 16.6 L
Rac, accumulation ratio (mean±SD) ([1]; 5 mg QD (n/N = 3/3)): 1.4±0.4
Vss/F (mean±SD) ([1]; 5 mg QD (n/N = 3/3)): 19.8 ± 7.7 L
Rac, accumulation ratio (mean±SD) ([1]; 10 mg QD (n/N = 3/3)): 1.4±0.2
Vss/F (mean±SD) ([1]; 10 mg QD (n/N = 3/3)): 24.9 ± 4.3 L
Rac, accumulation ratio (mean±SD) ([1]; 20 mg QD (n/N = 5/5)): 1.2±0.2
Vss/F (mean±SD) ([1]; 20 mg QD (n/N = 5/5)): 18.1 ± 2.5 L
Rac, accumulation ratio (mean±SD) ([1]; 40 mg QD (n/N = 3/3)): 1.1±0.1
Rac, accumulation ratio (mean±SD) ([1]; 50 mg BID (n/N = 4/4)): 1.8±0.4
Vss/F (mean±SD) ([1]; 50 mg BID (n/N = 4/4)): 39.9 ± 3.4 L
Rac, accumulation ratio (mean±SD) ([1]; 60 mg QD (n/N = 5/5)): 1.1±0.0
Vss/F (mean±SD) ([1]; 60 mg QD (n/N = 5/5)): 32.1 ± 13.0 L
Rac, accumulation ratio (mean±SD) ([1]; 80 mg QD (n/N = 9/9)): 1.2±0.1
Vss/F (mean±SD) ([1]; 80 mg QD (n/N = 9/9)): 38.8 ± 23.5 L
Rac, accumulation ratio (mean±SD) ([1]; 100 mg QD (n/N = 20/20)): 1.2±0.1
Vss/F (mean±SD) ([1]; 100 mg QD (n/N = 20/20)): 40.1 ± 21.9 L
Rac, accumulation ratio (mean±SD) ([1]; 120 mg QD (n/N = 4/4)): 1.2±0.2
Vss/F (mean±SD) ([1]; 120 mg QD (n/N = 4/4)): 1.3 ± 39.5 L
Accumulation ratio (Rac) ([1]; after BID administration): 1.8
Accumulation ratio (mean Rac) ([1]; after repeated QD administration): 1.1-1.5
AUC from time zero to 24 h post dose ([1]; human, in vivo): approximately 35 918 h*ng/mL
AUC from time zero to the last measurable concentration ([1]; human, in vivo): 33 827 h*ng/mL
AUC0-inf, mean±SD ([1]; human, in vivo, 2 mg): 4361.8 ng·h/mL
AUC0-t, mean±SD ([1]; human, in vivo, 2 mg): 2753.5 ng·h/mL
CLss/F (mean±SD) ([1]; human, in vivo, 2 mg): 0.7 L/h
Cmax, mean±SD ([1]; human, in vivo, 2 mg): 203.0 ng/mL
Tmax, median (range) ([1]; human, in vivo, 2 mg): 2.0 (2.0-2.0) h
t½, median (range) ([1]; human, in vivo, 2 mg): 16.0 (16.0-16.0) h
AUC0-inf, mean±SD ([1]; human, in vivo, 5 mg): 9655.4±11 022.2 h*ng/mL
AUC0-t, mean±SD ([1]; human, in vivo, 5 mg): 6013.7 ± 5649.0 ng·h/mL
CLss/F (mean±SD) ([1]; human, in vivo, 5 mg): 1.6 ± 1.3 L/h
Cmax, mean±SD ([1]; human, in vivo, 5 mg): 470.7 ± 354.0 ng/mL
Tmax, median (range) ([1]; human, in vivo, 5 mg): 2.0 (2.0-2.0) h
t½, median (range) ([1]; human, in vivo, 5 mg): 10.3 (6.4-21.4) h
AUC0-inf, mean±SD ([1]; human, in vivo, 10 mg): 10 553.4±2657.5 h*ng/mL
AUC0-t, mean±SD ([1]; human, in vivo, 10 mg): 7506.4 ± 892.6 ng·h/mL
CLss/F (mean±SD) ([1]; human, in vivo, 10 mg): 1.3 ± 0.2 L/h
Cmax, mean±SD ([1]; human, in vivo, 10 mg): 598.7 ± 67.9 ng/mL
Tmax, median (range) ([1]; human, in vivo, 10 mg): 4.0 (2.0-4.0) h
t½, median (range) ([1]; human, in vivo, 10 mg): 13.2 (9.4-16.8) h
AUC0-inf, mean±SD ([1]; human, in vivo, 20 mg): 22 122.4±18 526.0 h*ng/mL
AUC0-t, mean±SD ([1]; human, in vivo, 20 mg): 16 213.5±9863.9 h*ng/mL
CLss/F (mean±SD) ([1]; human, in vivo, 20 mg): 1.6 ± 0.8 L/h
Cmax, mean±SD ([1]; human, in vivo, 20 mg): 1483.2 ± 487.8 ng/mL
Tmax, median (range) ([1]; human, in vivo, 20 mg): 2.0 (1.8-2.0) h
t½, median (range) ([1]; human, in vivo, 20 mg): 9.4 (5.5-17.5) h
AUC0-inf, mean±SD ([1]; human, in vivo, 40 mg): 22 437.1±5342.9 h*ng/mL
AUC0-t, mean±SD ([1]; human, in vivo, 40 mg): 19 566.5±3285.1 h*ng/mL
CLss/F (mean±SD) ([1]; human, in vivo, 40 mg): 2.1 ± 0.4 L/h
Cmax, mean±SD ([1]; human, in vivo, 40 mg): 2013.3 ± 280.2 ng/mL
Tmax, median (range) ([1]; human, in vivo, 40 mg): 1.9 (1.8-2.0) h
t½, median (range) ([1]; human, in vivo, 40 mg): 7.5 (5.5-9.2) h
AUC0-inf, mean±SD ([1]; human, in vivo, 50 mg): 38 418.9±19 776.1 h*ng/mL
AUC0-t, mean±SD ([1]; human, in vivo, 50 mg): 17 959.6±5287.0 h*ng/mL
CLss/F (mean±SD) ([1]; human, in vivo, 50 mg): 2.8 ± 0.8 L/h
Cmax, mean±SD ([1]; human, in vivo, 50 mg): 2152.5 ± 354.3 ng/mL
Tmax, median (range) ([1]; human, in vivo, 50 mg): 2.0 (1.9-3.7) h
t½, median (range) ([1]; human, in vivo, 50 mg): 9.7 (7.8-15.2) h
AUC0-inf, mean±SD ([1]; human, in vivo, 60 mg): 19 189.5±10 074.3 h*ng/mL
AUC0-t, mean±SD ([1]; human, in vivo, 60 mg): 17 777.2±8739.1 h*ng/mL
CLss/F (mean±SD) ([1]; human, in vivo, 60 mg): 4.6 ± 3.6 L/h
Cmax, mean±SD ([1]; human, in vivo, 60 mg): 2056.0 ± 975.0 ng/mL
Tmax, median (range) ([1]; human, in vivo, 60 mg): 2.0 (1.9-3.9) h
t½, median (range) ([1]; human, in vivo, 60 mg): 5.8 (3.4-7.7) h
AUC0-inf, mean±SD ([1]; human, in vivo, 80 mg): 48 747.0±33 189.7 h*ng/mL
AUC0-t, mean±SD ([1]; human, in vivo, 80 mg): 37 727.0±21 476.1 h*ng/mL
CLss/F (mean±SD) ([1]; human, in vivo, 80 mg): 2.9 ± 1.8 L/h
Cmax, mean±SD ([1]; human, in vivo, 80 mg): 3487.8 ± 1649.2 ng/mL
Tmax, median (range) ([1]; human, in vivo, 80 mg): 2.0 (1.9-3.8) h
t½, median (range) ([1]; human, in vivo, 80 mg): 9.7 (5.8-14.4) h
AUC0-inf, mean±SD ([1]; human, in vivo, 100 mg): 40 080.4±16 731.2 h*ng/mL
AUC0-t, mean±SD ([1]; human, in vivo, 100 mg): 33 827.1±12 273.6 h*ng/mL
CLss/F (mean±SD) ([1]; human, in vivo, 100 mg): 3.5 ± 1.8 L/h
Cmax, mean±SD ([1]; human, in vivo, 100 mg): 3212.5 ± 765.1 ng/mL
Tmax, median (range) ([1]; human, in vivo, 100 mg): 1.9 (1.8-4.1) h
t½, median (range) ([1]; human, in vivo, 100 mg): 7.5 (5.3-16.1) h
AUC0-inf, mean±SD ([1]; human, in vivo, 120 mg): 87 799.1±11 6874.0 h*ng/mL
AUC0-t, mean±SD ([1]; human, in vivo, 120 mg): 62 737.2±74517.1 h*ng/mL
CLss/F (mean±SD) ([1]; human, in vivo, 120 mg): 4.3 ± 3.3 L/h
Cmax, mean±SD ([1]; human, in vivo, 120 mg): 5107.5 ± 4893.2 ng/mL
Tmax, median (range) ([1]; human, in vivo, 120 mg): 2.0 (1.9-2.1) h
t½, median (range) ([1]; human, in vivo, 120 mg): 8.8 (6.0-15.2) h
Dose linearity [2]: Dose linearity was not observed
